Reference: patent publication US8614252B2, “Crystalline solid rasagiline base” (Teva Pharmaceutical Industries Ltd., priority 2006, dated 2013)
≈ marks a conversion by molar mass, not a printed value.

Columns and labels:
[1] = alcohols, acetone, ethyl acetate, toluene, diethyl ether, dioxane, hexane and n-heptane
[2] = pH 11
[3] = low levels of volatiles by KF and TGA

With C#CCN[C@@H]1CCc2ccccc21 [rasagiline base, R(+)-N-propargyl-1-aminoindan] the “solubility in organic solvents” value [1] was “freely soluble”, the solubility in water [2] was 5500 µg/mL (≈ 32.1 mM) and the hygroscopicity [3] was “not hygroscopic”.
